In PubChem BioAssay (NCI):
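Protocol summary: plate cells (96-well), add compound at 5 concentrations, incubate 48 h, interpolate endpoints linearly. GI50 = concentration required for 50% inhibition of growth. The concentration for full growth arrest is given as TGI.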

Key:
Assay in all cases: NCI-60 cell line screen, 48 h
IGROV1 ovarian = system: IGROV1 ovarian
SN12C renal = system: SN12C renal
OVCAR-5 ovarian = system: OVCAR-5 ovarian
DU-145 prostate = system: DU-145 prostate
HOP-62 NSCLC = system: HOP-62 NSCLC
SF-539 CNS = system: SF-539 CNS
CAKI-1 renal = system: CAKI-1 renal
DMS 114 small cell lung = system: DMS 114 small cell lung
M19-MEL melanoma = system: M19-MEL melanoma
KM20L2 colon = system: KM20L2 colon
XF 498 CNS = system: XF 498 CNS
LXFL 529 NSCLC = system: LXFL 529 NSCLC
DLD-1 colon = system: DLD-1 colon
RXF-631 renal = system: RXF-631 renal
DMS 273 small cell lung = system: DMS 273 small cell lung

SMILES: CC(C)(N=NC(C)(C)C(=O)NCCO)C(=O)NCCO
- TGI (IGROV1 ovarian): > 100 µM
- TGI (SN12C renal): > 100 µM
- TGI (OVCAR-5 ovarian): > 100 µM
- TGI (DU-145 prostate): > 100 µM
- TGI (HOP-62 NSCLC): > 100 µM
- TGI (SF-539 CNS): > 100 µM
- TGI (CAKI-1 renal): > 100 µM

SMILES: C=C1CC(COc2cc(=O)oc3ccccc23)(c2ccccc2)OC1=O (stereo not drawn)
- TGI (IGROV1 ovarian): 3.07 µM
- TGI (SN12C renal): 6.92 µM
- TGI (OVCAR-5 ovarian): 21.4 µM
- TGI (DU-145 prostate): 5.74 µM
- TGI (HOP-62 NSCLC): 22.9 µM
- TGI (SF-539 CNS): 7.69 µM
- TGI (CAKI-1 renal): 2.67 µM

SMILES: COc1cc(/C=C2/C(=O)N(C(=O)c3ccccc3O)N=C2C)cc(OC)c1OC
- TGI (IGROV1 ovarian): 4.71 µM
- TGI (SN12C renal): > 91.2 µM
- TGI (OVCAR-5 ovarian): > 100 µM
- TGI (DU-145 prostate): > 100 µM
- TGI (DMS 114 small cell lung): 21.7 µM
- TGI (SF-539 CNS): 6.39 µM
- TGI (M19-MEL melanoma): > 100 µM
- TGI (KM20L2 colon): > 100 µM
- TGI (XF 498 CNS): > 100 µM
- TGI (LXFL 529 NSCLC): > 100 µM
- TGI (CAKI-1 renal): > 25.8 µM
- TGI (DLD-1 colon): > 100 µM

SMILES: Cc1nc(-c2ccc([N+](=O)[O-])cc2)cn2c1nc1ccccc12
- TGI (IGROV1 ovarian): > 100 µM
- TGI (SN12C renal): > 100 µM
- TGI (OVCAR-5 ovarian): > 100 µM
- TGI (DU-145 prostate): > 100 µM
- TGI (HOP-62 NSCLC): > 100 µM
- TGI (SF-539 CNS): > 100 µM
- TGI (CAKI-1 renal): > 100 µM

SMILES: CN(C)CCCOC(=O)C(c1ccccc1)C1(O)CCSCC1 (stereo not drawn)
- TGI (IGROV1 ovarian): > 100 µM
- TGI (SN12C renal): > 100 µM
- TGI (OVCAR-5 ovarian): > 100 µM
- TGI (DU-145 prostate): > 100 µM
- TGI (HOP-62 NSCLC): > 100 µM
- TGI (SF-539 CNS): > 100 µM
- TGI (CAKI-1 renal): > 100 µM

SMILES: CSc1nc(Cl)c2c(n1)Sc1nc3cc4c(cc3n1C2O)OCCO4 (stereo not drawn)
- TGI (IGROV1 ovarian): 18 µM
- TGI (SN12C renal): 46.6 µM
- TGI (OVCAR-5 ovarian): 36 µM
- TGI (DU-145 prostate): 15.9 µM
- TGI (HOP-62 NSCLC): 23 µM
- TGI (SF-539 CNS): 0.0867 µM
- TGI (CAKI-1 renal): 1.21 µM

SMILES: Cc1nc2c(nc1Cl)nc(Oc1ccc(Cl)cc1)c1ccccc12
- TGI (IGROV1 ovarian): > 100 µM
- TGI (SN12C renal): > 100 µM
- TGI (OVCAR-5 ovarian): > 100 µM
- TGI (HOP-62 NSCLC): 84.1 µM
- TGI (DMS 114 small cell lung): > 100 µM
- TGI (SF-539 CNS): > 100 µM
- TGI (M19-MEL melanoma): > 100 µM
- TGI (RXF-631 renal): > 100 µM
- TGI (DMS 273 small cell lung): > 100 µM
- TGI (KM20L2 colon): > 100 µM
- TGI (XF 498 CNS): > 100 µM
- TGI (LXFL 529 NSCLC): > 100 µM
- TGI (CAKI-1 renal): > 100 µM
- TGI (DLD-1 colon): > 100 µM

SMILES: S=C(N/N=C\C=N/NC(=S)N1CCCCC1)N1CCCCC1
- TGI (IGROV1 ovarian): > 52.7 µM
- TGI (SN12C renal): > 100 µM
- TGI (OVCAR-5 ovarian): > 100 µM
- TGI (DU-145 prostate): > 100 µM
- TGI (HOP-62 NSCLC): > 21.1 µM
- TGI (SF-539 CNS): > 100 µM
- TGI (CAKI-1 renal): > 100 µM

SMILES: O=c1[nH]n2c(=O)cc[nH]c2c1-c1nnns1
- TGI (IGROV1 ovarian): > 100 µM
- TGI (SN12C renal): > 100 µM
- TGI (OVCAR-5 ovarian): > 100 µM
- TGI (HOP-62 NSCLC): > 100 µM
- TGI (DMS 114 small cell lung): > 100 µM
- TGI (SF-539 CNS): > 100 µM
- TGI (M19-MEL melanoma): > 100 µM
- TGI (DMS 273 small cell lung): > 100 µM
- TGI (KM20L2 colon): > 100 µM
- TGI (XF 498 CNS): > 100 µM
- TGI (LXFL 529 NSCLC): > 100 µM
- TGI (CAKI-1 renal): > 100 µM
- TGI (DLD-1 colon): > 100 µM

SMILES: OC1C2[C@@H](O)CCCN2C[C@@H](O)[C@H]1O (stereo partly drawn)
- TGI (IGROV1 ovarian): > 100 µM
- TGI (SN12C renal): > 100 µM
- TGI (OVCAR-5 ovarian): > 100 µM
- TGI (DU-145 prostate): > 100 µM
- TGI (HOP-62 NSCLC): > 100 µM
- TGI (SF-539 CNS): > 100 µM
- TGI (CAKI-1 renal): > 100 µM

SMILES: Cc1c(F)c(N)c2c(=O)cc(-c3ccc(NC(=O)CN(C)C)c(F)c3)oc2c1F
- TGI (IGROV1 ovarian): > 100 µM
- TGI (SN12C renal): > 100 µM
- TGI (OVCAR-5 ovarian): > 100 µM
- TGI (DU-145 prostate): > 100 µM
- GI50 (HOP-62 NSCLC): > 100 µM
- TGI (HOP-62 NSCLC): > 100 µM
- TGI (SF-539 CNS): > 100 µM
- TGI (CAKI-1 renal): > 66.1 µM

SMILES: CN(C)CCCOc1nc2c(c(=O)n(C)c(=O)n2C)n1C (tested in a mixture with another compound)
- TGI (IGROV1 ovarian): > 100 µM
- TGI (SN12C renal): 30.1 µM
- TGI (OVCAR-5 ovarian): > 100 µM
- TGI (DU-145 prostate): 39.5 µM
- TGI (HOP-62 NSCLC): > 100 µM
- TGI (SF-539 CNS): 58.3 µM
- TGI (CAKI-1 renal): 66.3 µM

SMILES: COc1cccc(-c2cc(=O)c3ccccc3o2)c1N
- TGI (IGROV1 ovarian): > 100 µM
- TGI (SN12C renal): > 100 µM
- TGI (OVCAR-5 ovarian): > 100 µM
- TGI (DU-145 prostate): > 100 µM
- TGI (HOP-62 NSCLC): > 100 µM
- TGI (SF-539 CNS): > 100 µM
- TGI (CAKI-1 renal): > 100 µM

SMILES: NC(N)=NS(=O)(=O)c1ccc(NCc2c3ccccc3[n+]([O-])c3ccccc23)cc1
- TGI (IGROV1 ovarian): > 100 µM
- TGI (SN12C renal): > 100 µM
- TGI (OVCAR-5 ovarian): > 100 µM
- TGI (HOP-62 NSCLC): > 100 µM
- TGI (DMS 114 small cell lung): 56.6 µM
- TGI (M19-MEL melanoma): > 100 µM
- TGI (DMS 273 small cell lung): > 100 µM
- TGI (KM20L2 colon): > 100 µM
- TGI (LXFL 529 NSCLC): 80.5 µM
- TGI (CAKI-1 renal): > 100 µM
- TGI (DLD-1 colon): > 100 µM

SMILES: COc1cc(O)c(/C=N/N=C(\N)NO)c(OC)c1
- TGI (IGROV1 ovarian): > 10 µM
- TGI (SN12C renal): > 10 µM
- TGI (OVCAR-5 ovarian): > 10 µM
- TGI (DU-145 prostate): > 10 µM
- TGI (HOP-62 NSCLC): > 10 µM
- TGI (SF-539 CNS): > 10 µM
- TGI (CAKI-1 renal): > 10 µM
